These results are taken from US10947263B2, “Cyclic dinucleotides as anticancer agents” (BRISTOL-MYERS SQUIBB COMPANY, priority 2017, dated 2021).

Where two headings read alike, the source gives them in different places.

In experiment [1] the test system is STING / IRF pathway in THP1-Dual cells. In words: STING THP1 Reporter Assay, IRF pathway (secreted Lucia luciferase, QUANTI-Luc). Type of experiment: cell-based. Conditions: 10% human plasma, 100% activation = 100 μM cGAMP, luciferase readout, read-out: THP1 Reporter Assays EC50 IRF3. The source says:
(§1) THP1-Dual™ cells were derived from the human THP-1 monocyte cell line by stable integration of two inducible reporter constructs. To this end, THP1-Dual™ cells allow the simultaneous study of the […], by monitoring the activity of SEAP, and the IRF pathway by assessing the activity of a secreted luciferase (Lucia). Both reporter proteins are readily measurable in the cell culture supernatant when using QUANTI-Blue™, a SEAP detection reagent, and QUANTI-Luc™, a luciferase detection reagent.
(§2) THP1-Dual™ cells induce the activation of NF-κB in response to STING agonists. They also trigger the IRF pathway upon stimulation with STING agonists, such as cGAMP. Here, the THP-1-Dual cells were used to assess STING binders for function on the cellular level.
(§3) Serial dilutions of compounds in DMSO were added to low volume 384 well plates at 100 nl/well using an ECHO acoustic dispenser (Labcyte, model 550) to achieve final starting concentration of 100 μM in cell suspension. THP-1 Dual™ STING reporter cells (Invivogen, Dual cells cat #THPD-nfis) were added to the plates with compounds at 15,000 cells in 10 μL per well in RPMI media (Gibco, cat #11875) containing 10% human plasma in a low volume 384-well black wall clear bottom tissue culture plate (Corning, cat #3542) for SEAP assay and low volume solid white plate (Corning, cat #3826) for luciferase assay. One column of the plate was reserved for treatment with cGAMP at 100 μM for 100% activation calculation and one column for no treatment (DMSO only) for baseline activation. Plates were then incubated in 37 OC incubator at 5% CO2 for 20 hours.
(§4) In the SEAP assay, […] 2× QuantiBlue (Invivogen, cat #Rep-qb2) is added to 384 well black plates seeded with THP1 cells and incubated at 37° C. for 2 hours. Plates were read on the Envision (Perkin Elmer) at 620 nm wavelength (OD620). In the luciferase assay, 5 μl of Quantiluc (Invivogen, Rep-qlc2) is added to white 384 well plates seeded with THP1 cells and read at 5 minutes on the Envision (Perkin Elmer) using a luminescence protocol (RLU). For both cell lines, 100% activation was determined by value (RLU) of THP-1 Dual STING cells stimulated with 100 μM cGAMP (Invivogen, cat #TLRL-NACGA23-5).
(A reporter such as luciferase makes a cellular process visible.)

Experiment [2] concerns the target T1, STING AQ (His-TVMV-S-hSTING(155-341)-G230A-R293Q) (Homo sapiens, UniProt Q86WV6, G230A/H232R/R293Q).
T1 construct: STING AQ: His-TVMV-S-hSTING(155-341)-G230A-R293Q
Nature of the experiment: STING HTRF binding assay (time resolved FRET competition), STING AQ. Conditions: 20 nM His-tagged STING AQ cytoplasmic domain, 40 nM fluorescein-labeled cGAMP analog probe, one hour; read-out: HTRF Binding Assays IC50 AQ. How it is done: (§5) A time resolved FRET-based competition binding assay was used to assess test article binding to STING WT and STING AQ. His-tagged STING cytoplasmic domain (WT or AQ) at a concentration of 20 nM was incubated with 2.5 nM Tb-labeled anti-His antibody, test compound, and fluorescein-labeled cGAMP analog probe (BioLog cat. no. C195) at a concentration of 200 nM (STING WT) or 40 nM (STING AQ) in PBS containing 0.005% Tween-20 and 0.1% BSA for one hour. Fluorescence at 495 nm and 520 nm was measured using an EnVision microplate reader to quantify FRET between Tb-labeled anti-His antibody and fluorescein-labeled probe. Background was defined as the signal obtained in the absence of STING protein, and background subtracted FRET ratios were normalized to the maximum signal obtained in the absence of test compound. These values were converted to a percent inhibition. Percent inhibition was determined for test compounds at 11 concentrations. The IC50, defined as the concentration of competing test compound needed to reduce specific binding of the probe by 50%, was calculated using the 4 parameter logistic equation to fit the data
STING AQ: His-TVMV-S-hSTING(155-341)-G230A-R293Q • […] […] […] […] LRQEEKEEV (SEQ ID NO:2)

The target of experiment [3] is T2, STING WT (His-TVMV-S-hSTING(155-341)-H232R) (Homo sapiens, UniProt Q86WV6, H232R).
T2 construct: STING WT: His-TVMV-S-hSTING(155-341)-H232R
In words: STING HTRF binding assay (time resolved FRET competition), STING WT. Conditions: 20 nM His-tagged STING WT cytoplasmic domain, 200 nM fluorescein-labeled cGAMP analog probe, one hour; read-out: HTRF Binding Assays IC50 WT. Here is the method: as §5
STING WT: His-TVMV-S-hSTING(155-341)-H232R • […] […] […] […] LRQEEKEEV (SEQ ID NO:1)
For orientation: Time-resolved FRET reads energy transfer from a long-lived donor to a nearby acceptor.

Experiment [4] relates to STING / NF-κB pathway in THP1-Dual cells. In words: STING THP1 Reporter Assay, NF-κB pathway (SEAP, QUANTI-Blue). Format: cell-based. Conditions: 10% human plasma, 100% activation = 100 μM cGAMP, SEAP readout, read-out: THP1 Reporter Assays EC50 NFkB.
Text: as §1, §2, §3, §4

T2 sequence (Q86WV6 with tags, fused parts or gaps H232R): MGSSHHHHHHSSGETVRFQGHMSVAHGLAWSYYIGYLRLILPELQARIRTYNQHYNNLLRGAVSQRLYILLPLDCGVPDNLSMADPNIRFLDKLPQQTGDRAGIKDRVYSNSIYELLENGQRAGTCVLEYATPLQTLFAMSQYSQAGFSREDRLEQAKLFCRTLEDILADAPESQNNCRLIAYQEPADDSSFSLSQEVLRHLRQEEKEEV
T1 sequence (Q86WV6 with tags, fused parts or gaps G230A/H232R/R293Q): as the sequence (Q86WV6 with tags, fused parts or gaps H232R) above, with G99A, R162Q counted along it

The EC50 is the concentration that produces a half-maximal response. As a reminder, the IC50 is the concentration at which inhibition is half-maximal. For the compound `Nc1ncnc2c1ncn2[C@@H]1O[C@@H]2COP(=O)(S)O[C@@H]3[C@H](F)[C@@H](COP(=O)(S)O[C@H]2[C@H]1F)O[C@H]3n1nnc2c([N+](=O)[O-])cccc21` (single isomer, unassigned) [Example 11-2], the EC50 in experiment [1] (20 hours) came out at 130 nM; in experiment [4] (20 hours) it was 300 nM. The IC50 in experiment [2] worked out at 3 nM; in experiment [3] it was 10 nM.

Regarding `Nc1ncnc2c1ncn2[C@@H]1O[C@@H]2COP(=O)(S)O[C@@H]3[C@H](F)[C@@H](COP(=O)(S)O[C@H]2[C@H]1F)O[C@H]3n1nnc2c(N)cccc21` (single isomer, unassigned) [Example 12-1], the EC50 worked out at 1600 nM in experiment [1] (Homo sapiens, THP1-Dual, 20 h) and 5400 nM in experiment [4] (Homo sapiens, THP1-Dual, 20 h). For the same compound, the IC50 came out at 10 nM in experiment [2] and 80 nM in experiment [3].

For the compound `Nc1ncnc2c1ncn2[C@@H]1O[C@@H]2COP(=O)(S)O[C@@H]3[C@H](F)[C@@H](COP(=O)(S)O[C@H]2[C@H]1F)O[C@H]3n1nnc2c([N+](=O)[O-])cccc21` (single isomer, unassigned) [Example 11-3], the EC50 in experiment [1] (20 hours) came to 4000 nM; in experiment [4] (20 hours) it was 9700 nM. The IC50 was determined as 10 nM in experiment [2] and 50 nM in experiment [3].

In the case of `Nc1ncnc2c1ncn2[C@@H]1O[C@@H]2COP(=O)(S)O[C@@H]3[C@H](O)[C@@H](COP(=O)(S)O[C@H]2[C@H]1F)O[C@H]3n1nnc2c(C(F)(F)F)cccc21` (single isomer, unassigned) [Example 9-2], the EC50 was 7900 nM in experiment [1] (20 hours) and 15700 nM in experiment [4] (20 hours). The figures for the IC50 in experiment [2] and in experiment [3] were 10 nM and 130 nM, respectively.

Turning to `NC(=O)c1cccc2c1nnn2[C@@H]1O[C@@H]2COP(=O)(O)O[C@H]3[C@@H](F)[C@H](n4cnc5c(N)ncnc54)O[C@@H]3COP(=O)(S)O[C@@H]1[C@@H]2F` (single isomer, unassigned) [Example 6-1], the concentration for a half-maximal effect (EC50) came to 1400 nM in experiment [1] (20 hours) and 4100 nM in experiment [4] (20 hours). Further, the IC50 in experiment [2] stood at 10 nM; in experiment [3], 20 nM.

In the case of `Nc1ncnc2c1ncn2[C@@H]1O[C@@H]2COP(=O)(O)O[C@@H]3[C@H](O)[C@@H](COP(=O)(O)O[C@H]2[C@H]1O)O[C@H]3n1nnc2c([N+](=O)[O-])cccc21` [Example 2, (1R,6R,8R,9R,10S,15R,17R, 18R)-8-(6-amino-9H-purin-9-yl)-3,9,12,18-tetrahydroxy-17-(4-nitro-1H-1,2,3-benzo-triazol-1-yl)-2,4,7,11,13,16-hexaoxa-3λ^5,12λ^5-diphospha-tricyclo[13.2.1.0^6,^10]octa-decane-3,12-dione], the EC50 in experiment [1] (Homo sapiens, THP1-Dual, 20 h) amounted to 53000 nM; in experiment [4] (Homo sapiens, THP1-Dual, 20 h) it was 80000 nM. Also, the IC50 in experiment [2] stood at 5 nM; in experiment [3], 160 nM.

For `Nc1ncnc2c1ncn2[C@@H]1O[C@@H]2COP(=O)(S)O[C@@H]3[C@H](O)[C@@H](COP(=O)(S)O[C@H]2[C@H]1F)O[C@H]3n1nnc2c([N+](=O)[O-])cccc21` (single isomer, unassigned) [Example 7-1], the EC50 in experiment [1] (20 hours) amounted to 600 nM; in experiment [4] (20 hours), 2100 nM. In addition, the IC50 in experiment [2] and in experiment [3] was 10 nM each time.

`NC(=O)c1cccc2c1nnn2[C@@H]1O[C@@H]2COP(=O)(S)O[C@H]3[C@@H](F)[C@H](n4cnc5c(N)ncnc54)O[C@@H]3COP(=O)(S)O[C@@H]1[C@@H]2F` (single isomer, unassigned) [Example 10-3]: the figures for the EC50 in experiment [1] (20 hours) and in experiment [4] (20 hours) were 5100 nM and 8900 nM, respectively. The values for the IC50 in experiment [2] and in experiment [3] were 5 nM and 50 nM, respectively.

Regarding `Nc1ncnc2c1ncn2[C@@H]1O[C@@H]2COP(=O)(S)O[C@@H]3[C@H](O)[C@@H](COP(=O)(O)O[C@H]2[C@H]1F)O[C@H]3n1nnc2c([N+](=O)[O-])cccc21` (single isomer, unassigned) [Example 5-1], the EC50 was 3500 nM in experiment [1] (Homo sapiens, THP1-Dual, 20 h) and 7600 nM in experiment [4] (Homo sapiens, THP1-Dual, 20 h). Moreover, the IC50 in experiment [2] and in experiment [3] was 10 nM throughout.

As for `NC(=O)c1cccc2c1nnn2[C@@H]1O[C@@H]2COP(=O)(O)O[C@H]3[C@@H](F)[C@H](n4cnc5c(N)ncnc54)O[C@@H]3COP(=O)(S)O[C@@H]1[C@@H]2F` (single isomer, unassigned) [Example 6-2], the concentration giving a half-maximal response (EC50) worked out at 8800 nM in experiment [1] (20 hours) and 36800 nM in experiment [4] (20 hours). In addition, the values for the IC50 in experiment [2] and in experiment [3] were 4 nM and 50 nM, respectively.

Turning to `NC(=O)c1cccc2c1nnn2[C@@H]1O[C@@H]2COP(=O)(S)O[C@H]3[C@@H](F)[C@H](n4cnc5c(N)ncnc54)O[C@@H]3COP(=O)(S)O[C@@H]1[C@@H]2F` (single isomer, unassigned) [Example 10-2], the EC50 in experiment [1] (20 hours) was found to be 46500 nM; in experiment [4] (20 hours), 76200 nM. In addition, the IC50 in experiment [2] worked out at 10 nM; in experiment [3], 100 nM.

In the case of `Nc1ncnc2c1ncn2[C@@H]1O[C@@H]2COP(=O)(S)O[C@@H]3[C@H](O)[C@@H](COP(=O)(S)O[C@H]2[C@H]1F)O[C@H]3n1nnc2c([N+](=O)[O-])cccc21` (single isomer, unassigned) [Example 7-2], the half-maximal effective concentration (EC50) in experiment [1] (20 hours) is 28000 nM; in experiment [4] (20 hours), 64000 nM. Moreover, the values for the IC50 in experiment [2] and in experiment [3] were 40 nM and 240 nM, respectively.

Take `O=[N+]([O-])c1cccc2c1nnn2[C@@H]1O[C@@H]2COP(=O)(S)O[C@H]3[C@@H](F)[C@H](n4cnc5c4ncn4ccnc54)O[C@@H]3COP(=O)(S)O[C@@H]1[C@@H]2O` (single isomer, unassigned) [Example 15-2]: the results for the EC50 in experiment [1] (20 hours) and in experiment [4] (20 hours) were 63400 nM and 96800 nM, respectively. Besides, the IC50 turned out to be 50 nM in experiment [2] and 1750 nM in experiment [3].

As for `NC(=O)c1cccc2c1nnn2[C@@H]1O[C@@H]2COP(=O)(O)O[C@H]3[C@@H](F)[C@H](n4cnc5c(N)ncnc54)O[C@@H]3COP(=O)(S)O[C@@H]1[C@@H]2O` (single isomer, unassigned) [Example 4-1], the EC50 in experiment [1] (20 hours) stood at 4500 nM; in experiment [4] (20 hours), 12000 nM. Further, the half-inhibitory concentration (IC50) is 10 nM in experiment [2] and 60 nM in experiment [3].
